Data from patent publication US20060069123A1, “Substituted dipiperidine CCR2 antagonists” (priority 2004, published 2006).
Where two headings read alike, the source gives them in different places.

How the values were obtained:
CCR2 = target: T1, CCR2 (Homo sapiens, UniProt P41597)
T1 sequence (P41597 1-360 isoform P41597-2): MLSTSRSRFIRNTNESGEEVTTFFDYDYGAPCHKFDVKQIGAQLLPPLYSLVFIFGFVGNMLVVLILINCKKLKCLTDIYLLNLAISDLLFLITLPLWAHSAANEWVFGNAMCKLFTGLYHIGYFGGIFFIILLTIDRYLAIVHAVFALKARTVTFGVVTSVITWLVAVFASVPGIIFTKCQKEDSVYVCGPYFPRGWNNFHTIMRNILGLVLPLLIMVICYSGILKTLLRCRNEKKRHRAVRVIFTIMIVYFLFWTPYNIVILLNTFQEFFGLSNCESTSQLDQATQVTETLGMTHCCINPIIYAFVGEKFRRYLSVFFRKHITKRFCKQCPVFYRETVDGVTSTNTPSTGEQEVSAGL

THP-1 cells [1] = settings: for IC50: Homo sapiens
THP-1 cells [2] = assay: MCP-1 Induced Chemotaxis in THP-1 Cells; format: cell-based; settings: THP-1 cells, MCP-1 0.01 μg/mL, 3 hours, read-out: Inhibition of MCP-1 Induced Chemotaxis IC50
[3] = THP-1, read-out: Inhibition of MCP-1 Induced Calcium Ion Influx IC50

Compound	IC50 (CCR2)	IC50 (THP-1 cells [1]; [3])	IC50 (THP-1 cells [2]; Homo sapiens)	IC50 (CCR2; read-out: Inhibition of MCP-1 Binding IC50, 125I labeled MCP-1 binding to CCR2, THP-1 cells)	IC50 (THP-1 cells [2])	IC50 (THP-1 cells [1]; THP-1, read-out: Inhibition of MCP-1 Induced Calcium Ion Influx IC50, THP-1 cells, 0.2 μM MCP-1, FLIPR)	IC50 (THP-1 cells [2]; Homo sapiens, THP-1, 3 h)	Inhibition of MCP-1 Induced Calcium Ion Influx, percent inhibition (THP-1 cells [1]; test concentration of 25 μM, IC50 not obtained)
COc1ccc(C2CCN(C(CO)C3CCN(C(=O)Nc4ccc(F)c(F)c4)CC3)CC2)cc1 (stereo not drawn) [Cpd 141, 4-{2-hydroxy-1-[4-(4-methoxy-phenyl)-piperidin-1-yl]-ethyl}-piperidine-1-carboxylic acid (3,4-difluoro-phenyl)-amide]	340 nM	6900 nM	760 nM					
CS(=O)(=O)N(CC(C1CCN(C(=O)/C=C/c2cc(F)cc(F)c2)CC1)N1CCC(c2c[nH]c3ccccc23)CC1)S(C)(=O)=O (stereo not drawn) [Cpd 134, N-{2-{1-[(2E)-3-(3,5-difluoro-phenyl)-acryloyl]-piperidin-4-yl}-2-[4-(1H-indol-3-yl)-piperidin-1-yl]-ethyl}-N-methanesulfonyl-methanesulfonamide]	300 nM	10 nM	90 nM					
CC(=O)OCC(C1CCN(C(=O)Nc2ccc(Cl)c(Cl)c2)CC1)N1CCC(c2c[nH]c3ccccc23)CC1 (stereo not drawn) [Cpd 242, acetic acid 2-[1-(3,4-dichloro-phenylcarbamoyl)-piperidin-4-yl]-2-[4-(1H-indol-3-yl)-piperidin-1-yl]-ethyl ester]	230 nM	40 nM	270 nM					
O=C(O)C(C1CCN(C(=O)/C=C/c2ccsc2)CC1)N1CCC(c2c[nH]c3ccccc23)CC1 (stereo not drawn) [Cpd 104, [4-(1H-indol-3-yl)-piperidin-1-yl]-{1-[(2E)-3-thiophen-3-yl-acryloyl]-piperidin-4-yl}-acetic acid]	90 nM	1010 nM	160 nM					
O=C(/C=C/c1ccc(F)c(Br)c1)N1CCC(C(CO)N2CCC(c3c[nH]c4ccc(F)cc34)CC2)CC1 (stereo not drawn) [Cpd 172, (2E)-3-(3-bromo-4-fluoro-phenyl)-1-(4-{1-[4-(5-fluoro-1H-indol-3-yl)-piperidin-1-yl]-2-hydroxy-ethyl}-piperidin-1-yl)-propenone]	32 nM	20 nM	30 nM					
Nc1ccc2[nH]cc(C3CCN(C(CO)C4CCN(C(=O)/C=C/c5cc(F)c(F)c(F)c5)CC4)CC3)c2n1 (stereo not drawn) [Cpd 191, (2E)-1-(4-{1-[4-(5-amino-1H-pyrrolo[3,2-b]pyridin-3-yl)-piperidin-1-yl]-2-hydroxy-ethyl}-piperidin-1-yl)-3-(3,4,5-trifluoro-phenyl)-propenone]	100 nM	170 nM	150 nM					
O=C(/C=C/c1cc(F)cc(F)c1)N1CCC(C(CO)N2CCC(c3n[nH]c4ccccc34)CC2)CC1 (stereo not drawn) [Cpd 173, (2E)-3-(3,5-difluoro-phenyl)-1-(4-{2-hydroxy-1-[4-(1H-indazol-3-yl)-piperidin-1-yl]-ethyl}-piperidin-1-yl)-propenone]				430 nM	130 nM			21%
O=C(/C=C/c1cc(F)cc(F)c1)N1CCC(C(CO)N2CCC(c3ccc4c(c3)OCO4)CC2)CC1 (stereo not drawn) [Cpd 190]	210 nM	250 nM	200 nM					
O=C(/C=C/c1ccc(F)c(Br)c1)N1CCC(C(CO)N2CCC(c3ccncc3)CC2)CC1 (stereo not drawn) [Cpd 186, (2E)-3-(3-bromo-4-fluoro-phenyl)-1-{4-[2-hydroxy-1-(3,4,5,6-tetrahydro-2H-[4,4′]bipyridinyl-1-yl)-ethyl]-piperidin-1-yl}-propenone]	360 nM	6100 nM	960 nM					
O=C(/C=C/c1ccc(Cl)c(Cl)c1)N1CCC(C(CO)N2CCC(c3cc[nH]n3)CC2)CC1 (stereo not drawn) [Cpd 155, (2E)-3-(3,4-dichloro-phenyl)-1-(4-{2-hydroxy-1-[4-(1H-pyrazol-3-yl)-piperidin-1-yl]-ethyl}-piperidin-1-yl)-propenone]	207 nM	940 nM	130 nM					
O=C(/C=C/c1cc(F)c(F)c(F)c1)N1CCC(C(CO)N2CCC(c3ccncc3)CC2)CC1 (stereo not drawn) [Cpd 183, (2E)-1-{4-[2-hydroxy-1-(3,4,5,6-tetrahydro-2H-[4,4′]bipyridinyl-1-yl)-ethyl]-piperidin-1-yl}-3-(3,4,5-trifluoro-phenyl)-propenone]	470 nM	9250 nM	400 nM					
CC(=O)NCC(C1CCN(C(=O)/C=C/c2cc(F)cc(F)c2)CC1)N1CCC(c2c[nH]c3ccccc23)CC1 (stereo not drawn) [Cpd 214, N-{2-{1-[(2E)-3-(3,5-difluoro-phenyl)-acryloyl]-piperidin-4-yl}-2-[4-(1H-indol-3-yl)-piperidin-1-yl]-ethyl}-acetamide]	70 nM	180 nM	190 nM					
O=C(O)C(C1CCN(C(=O)Nc2cc(F)cc(C(F)(F)F)c2)CC1)N1CCC(c2c[nH]c3ccccc23)CC1 (stereo not drawn) [Cpd 65, [1-(3-fluoro-5-trifluoromethyl-phenylcarbamoyl)-piperidin-4-yl]-[4-(1H-indol-3-yl)-piperidin-1-yl]-acetic acid]	353 nM	120 nM	1600 nM					
O=C(O)C(C1CCN(C(=O)COc2ccc(Cl)c(Cl)c2)CC1)N1CCC(c2c[nH]c3ccccc23)CC1 (stereo not drawn) [Cpd 114, {1-[2-(3,4-dichloro-phenoxy)-acetyl]-piperidin-4-yl}-[4-(1H-indol-3-yl)-piperidin-1-yl]-acetic acid]	350 nM					210 nM	290 nM	
Cc1cc(NC(=O)N2CCC(C(C(=O)O)N3CCC(c4c[nH]c5ccccc45)CC3)CC2)ccc1F (stereo not drawn) [Cpd 102, [1-(4-fluoro-3-methyl-phenylcarbamoyl)-piperidin-4-yl]-[4-(1H-indol-3-yl)-piperidin-1-yl]-acetic acid]	260 nM	860 nM	230 nM					
CSc1ccc(NC(=O)N2CCC(C(C(=O)O)N3CCC(c4c[nH]c5ccccc45)CC3)CC2)cc1 (stereo not drawn) [Cpd 127, [4-(1H-indol-3-yl)-piperidin-1-yl]-[1-(4-methylsulfanyl-phenylcarbamoyl)-piperidin-4-yl]-acetic acid]	760 nM	820 nM	750 nM					
O=C(O)C(C1CCN(C(=O)Nc2ccc(Br)cc2)CC1)N1CCC(c2c[nH]c3ccccc23)CC1 (stereo not drawn) [Cpd 89, [1-(4-bromo-phenylcarbamoyl)-piperidin-4-yl]-[4-(1H-indol-3-yl)-piperidin-1-yl]-acetic acid]	95 nM	470 nM	210 nM					

Now from value to compound, other results behind:

IC50 (CCR2)	IC50 (THP-1 cells [1]; [3])	IC50 (THP-1 cells [2]; Homo sapiens)	IC50 (CCR2; read-out: Inhibition of MCP-1 Binding IC50, 125I labeled MCP-1 binding to CCR2, THP-1 cells)	IC50 (THP-1 cells [2])	IC50 (THP-1 cells [1]; THP-1, read-out: Inhibition of MCP-1 Induced Calcium Ion Influx IC50, THP-1 cells, 0.2 μM MCP-1, FLIPR)	IC50 (THP-1 cells [2]; Homo sapiens, THP-1, 3 h)	Compound	Inhibition of MCP-1 Induced Calcium Ion Influx, percent inhibition (THP-1 cells [1]; test concentration of 25 μM, IC50 not obtained)
30 nM	210 nM	80 nM					COc1ccc(C2CCN(C(CO)C3CCN(C(=O)/C=C/c4cc(F)cc(F)c4)CC3)CC2)cc1 (stereo not drawn) [Cpd 137, (2E)-3-(3,5-difluoro-phenyl)-1-(4-{2-hydroxy-1-[4-(4-methoxy-phenyl)-piperidin-1-yl]-ethyl}-piperidin-1-yl)-propenone]	
9 nM	4 nM	5 nM					O=C(Nc1ccc(Cl)c(Cl)c1)N1CCC(C(CO)N2CCC(c3c[nH]c4ccccc34)CC2)CC1 (stereo not drawn) [Cpd 123, 4-{2-hydroxy-1-[4-(1H-indol-3-yl)-piperidin-1-yl]-ethyl}-piperidine-1-carboxylic acid (3,4-dichloro-phenyl)-amide]	
20 nM	10 nM	40 nM					O=C(/C=C/c1ccc(Cl)c(Cl)c1)N1CCC(C(CO)N2CCC(c3c[nH]c4ccc(F)cc34)CC2)CC1 (stereo not drawn) [Cpd 168, (2E)-3-(3,4-dichloro-phenyl)-1-(4-{1-[4-(5-fluoro-1H-indol-3-yl)-piperidin-1-yl]-2-hydroxy-ethyl}-piperidin-1-yl)-propenone]	
20 nM	30 nM	20 nM					CC(=O)OCC(C1CCN(C(=O)/C=C/c2cc(F)c(F)c(F)c2)CC1)N1CCC(c2c[nH]c3ccccc23)CC1 (stereo not drawn) [Cpd 236, acetic acid 2-[4-(1H-indol-3-yl)-piperidin-1-yl]-2-{1-[(2E)-3-(3,4,5-trifluoro-phenyl)-acryloyl]-piperidin-4-yl}-ethyl ester]	
6 nM	8 nM	30 nM					COc1ccc2[nH]cc(C3CCN(C(CO)C4CCN(C(=O)/C=C/c5cc(F)c(F)c(F)c5)CC4)CC3)c2c1 (stereo not drawn) [Cpd 166, (2E)-1-(4-{2-hydroxy-1-[4-(5-methoxy-1H-indol-3-yl)-piperidin-1-yl]-ethyl}-piperidin-1-yl)-3-(3,4,5-trifluoro-phenyl)-propenone]	
7 nM	2 nM	20 nM					COc1ccc2[nH]cc(C3CCN(C(CO)C4CCN(C(=O)/C=C/c5ccc(Cl)c(Cl)c5)CC4)CC3)c2c1 (stereo not drawn) [Cpd 162, (2E)-3-(3,4-dichloro-phenyl)-1-(4-{2-hydroxy-1-[4-(5-methoxy-1H-indol-3-yl)-piperidin-1-yl]-ethyl}-piperidin-1-yl)-propenone]	
29.5 nM	10 nM	20 nM					O=C(/C=C/c1cc(F)c(F)c(F)c1)N1CCC([C@H](CO)N2CCC(c3c[nH]c4ccccc34)CC2)CC1 [Cpd 188, (2E)-1-(4-{(1R)-2-hydroxy-1-[4-(1H-indol-3-yl)-piperidin-1-yl]-ethyl}-piperidin-1-yl)-3-(3,4,5-trifluoro-phenyl)-propenone]	
